Where a SMILES comes first, the peptide text is derived from it. The star is where a group is joined. Succinyl(20-O-(20S)-CPT) = CC[C@@]1(OC(=O)CCC(=O)*)C(=O)OCc2c1cc1n(c2=O)Cc2cc3ccccc3nc2-1; Biotin = O=C1N[C@H]2[C@H](CS[C@H]2CCCCC(=O)*)N1
What was measured:
Red blood cells (RBCs) = experiment: Hemolysis assay; format: cell-based, BALB/c mice; details: mouse RBC suspension in PBS, 2 h, OD540; n = 3
4T1 cells = experiment: CCK-8 assay; format: cell-based; details: 20 μM, 4 h incubation, washed, n = 6; for cell viability, no laser: dark, further 24 h
Zeta potential = format: physicochemical; details: 10 μM in PBS pH 7.4

zeta potential (Zeta potential)	Compound	hemolysis (Red blood cells (RBCs))	cell viability, no laser (4T1 cells)	cell viability, + Laser (4T1 cells; 808 nm laser 5 min 1 W cm−2, further 24 h, absence of biotin) [%]
	CC[C@@]1(OC(=O)CCC(=O)NCCCC[C@H](NC(=O)[C@H](Cc2ccccc2)NC(=O)[C@@H](N)Cc2ccccc2)C(=O)N[C@@H](CCCCNC(=O)CCCC[C@@H]2SC[C@@H]3NC(=O)N[C@@H]32)C(=O)O)C(=O)OCc2c1cc1n(c2=O)Cc2cc3ccccc3nc2-1 [FFKK-CPT, Phe-Phe-Lys(CPT)-Lys(Biotin)] (H-FFK(Succinyl(20-O-(20S)-CPT))K(Biotin)-OH)	no significant hemolysis		
	CC[C@@]1(O)C(=O)OCc2c1cc1n(c2=O)Cc2cc3ccccc3nc2-1 [Free CPT, camptothecin]		49.3%	
+23.9 mV	CN1C(=CC=C2CCCC(C=CC3=[N+](C)c4ccccc4C3(C)C)=C2Cl)C(C)(C)c2ccccc21.[Cl-] [free IR775, IR775]		above 80%	38.3

Source: PMC12344197 (Bioactive Materials, 2025)
